This note sets out measurements from publication PMC10537604, “Development and Assessment of 1,5–Diarylpyrazole/Oxime Hybrids Targeting EGFR and JNK–2 as Antiproliferative Agents: A Comprehensive Study through Synthesis, Molecular Docking, and Evaluation” (Molecules, 2023).

pIC50: −log10 of the molar value.

For data set [1], the system named is human cervical cancer cell line Hela. Description: WST-8 antiproliferative assay, Hela. Type of data set: cell-based. The note with it: WST-8 assay.
For data set [2], the system named is human myelogenous leukemia cell line K562. Description: WST-8 antiproliferative assay, K562. Type of data set: cell-based. As to conditions: Homo sapiens, K562, WST-8 assay.
For another data set, the target named is T1, JNK-2 (Homo sapiens, UniProt P45984).
T1 construct: HEK293 only for the control lysate
T1 sequence (P45984 whole entry): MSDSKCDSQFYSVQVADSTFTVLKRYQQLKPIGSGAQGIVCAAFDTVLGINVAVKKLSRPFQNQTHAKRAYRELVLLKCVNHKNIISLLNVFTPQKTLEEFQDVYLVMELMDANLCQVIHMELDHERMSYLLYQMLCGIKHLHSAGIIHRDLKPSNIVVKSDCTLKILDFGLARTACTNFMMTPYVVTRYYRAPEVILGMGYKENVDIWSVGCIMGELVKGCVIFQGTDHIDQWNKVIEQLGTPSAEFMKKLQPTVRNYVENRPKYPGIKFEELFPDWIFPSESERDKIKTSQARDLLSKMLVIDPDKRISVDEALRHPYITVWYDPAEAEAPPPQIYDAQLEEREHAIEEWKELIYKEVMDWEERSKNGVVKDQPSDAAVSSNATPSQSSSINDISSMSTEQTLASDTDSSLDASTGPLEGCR
Briefly: JNK-2 inhibitory assay (SimpleStep ELISA, pT183/Y185). As to conditions: read-out: IC50 (µM) against JNK-2. Type of data set: biochemical.

The next data set relates to Hela cells. Briefly: Apoptosis assay, annexin V/PI flow cytometry. Type of data set: cell-based, human. As to conditions: concentration double the IC50, 24 h. From the text:
For further investigation of the anticancer activity of compounds 8g and 8i, studies of apoptotic changes after treatment of Hela cells with these inhibitors were examined using fluorescent microscope and flowcytometry. Moreover, to discriminate between apoptosis and necrosis after the treatment of Hela cell with two inhibitors 8g and 8i at different concentrations, a fluorescent microscope was used to distinguish between apoptosis and necrosis based on their characteristic difference in morphology using annexin V and PI [52]. […] This was exposed in the cell membrane of the Hela cells after treatment with two inhibitors due to plasma membrane sprouting and chromatin concentration. The prolonged incubation of Hela cells with two inhibitors directed cells to necrosis, which was marked in red because of the PI staining of necrotic cells as a result of losing their dye-excluding ability owing to a loss of plasma membrane integrity and the dissolution of nuclear chromatin [53] (Figure S1).
Then, 200 µL of medium was added to separate cells, cells were centrifuged for 5 min, and supernatant was decanted. Then, it was washed twice with 100 µL PBS and 200 µL of buffer, 5 µL of PI& Annexin, and 200 µL of PBS was added for the test compounds. For control, 400 µL of PBS was added. […]

The nature of data set [3]: WST-8 cytotoxicity towards normal cell line PC12. Type of data set: cell-based, rat. As to conditions: rat, PC12 cells; WST-8 assay, six concentrations 1-100 μM; read-out: CC50 against PC12 cell line. The procedure:
The evaluation of normal cell viability is fundamental in analyzing the efficacy of target compounds and is often used in conjunction with cytotoxicity tests to help understand how target compound toxicity affects normal cell health. […] A 100 μL aliquot of cells (10,000 cells/mL) was added to a 96 well plate and incubated for 24 h at 37 °C in a humidified incubator containing 5% CO2 in the air. […] Then, a 10 μL WST-8 solution (mixture of WST-8 and 1-methoxy PMS) was added to each well and the incubation continued for 3 h. The visible absorbance at 450 nm and 630 nm as the reference wavelength of each well was quantified using an MTP-310 absorbance microplate reader. Daunorubicin was used as a positive control. The results of cytotoxicity were recorded as growth inhibition percentages and as IC50 values.

For data set [4], the system named is human colorectal adenocarcinoma cell line DLD-1. Description: WST-8 antiproliferative assay, DLD-1. It is filed as cell-based. The note with it: WST-8 assay, six concentrations 1-100 µM.
Data set [5] relates to human pancreatic cancer cell line SUIT-2. Briefly: WST-8 antiproliferative assay, SUIT-2. As to conditions: WST-8 assay, six concentrations 1-100 µM. Type of data set: cell-based.
Data set [6] has as its system human hepatocellular carcinoma cell line HepG2. Briefly: WST-8 antiproliferative assay, HepG2. It is filed as cell-based. As to conditions: WST-8 assay, six concentrations 1-100 µM.

Procedure for JNK-2: The SimpleStep ELISA employs an affinity tag-labelled capture antibody and a reporter attached detector antibody to immunocapture the sample analyte in solution. This complete complex (capture antibody/analyte/detector antibody) is then immobilized via immunoaffinity of an anti-tag antibody coating the well. To perform the assay, samples or controls are added to the wells, followed by the antibody cocktail. After incubation, the wells are washed to remove unbound material. TMB substrate is added and during incubation is catalyzed by HRP, generating blue coloration. This reaction is then stopped by the addition of stop solution, completing any color change from blue to yellow. The signal is generated proportionally to the amount of bound analyte and the intensity is measured at 450 nm. Optionally, instead of the endpoint reading, the development of TMB can be recorded kinetically at 600 nm. An antibody cocktail can be prepared by combining an appropriate volume of the capture and detector antibodies immediately prior to assay. To make 3 mL of the antibody cocktail, combine 1.5 mL of capture antibody with 1.5 mL of detector antibody. Mix thoroughly and gently. Control lysate can be prepared from HEK293 cells, cultured in 10% FBS containing medium, then treated with 1 μg/mL anisomycin. After preparing all the reagents, samples, and control as instructed and following the previously published procedures [74, 75], add 50 µL of sample or control to the well, add 50 µL of the antibody cocktail, then incubate at room temperature for 1 h on a plate shaker set to 400 rpm, aspirate and wash each well three times with 350 μL with wash buffer, add 100 μL TMB substrate to each well and incubate for 15 min, then add 100 μL stop solution and measure the absorbance at 450 nm.

As for `COc1cc(/C(C)=N/O)ccc1OC(=O)c1cc(-c2ccc(C)cc2)n(-c2ccc(S(N)(=O)=O)cc2)n1` [Compound 8g, (E)–4–(1–(Hydroxyimino)ethyl)–2–methoxyphenyl 1–(4–sulfamoylphenyl)–5–p–tolyl–1H–pyrazole–3–carboxylate], the inhibition at 100 µM stood at 78% in data set [1] (100 µM, read-out: Growth Inhibition (GI%) Hela) and 87% in data set [2] (100 µM, read-out: Growth Inhibition (GI%) K562). In addition, the pIC50 is 5.10 in data set [1] (six concentrations 1-100 µM, read-out: IC50 Hela); 5.12 in data set [2] (six concentrations 1-100 µM, read-out: IC50 K562); 4.49 in data set [4]; 4.72 in data set [5]; 4.91 in data set [6]. Further, the IC50 at JNK-2 was above 200 µM. The “percentage of apoptotic Hela cells” value with Hela cells worked out at 34.7%. The CC50 at 24 h in data set [3] came to 16.1 µM.
